Columns and labels:
[1] = target: T1, Ephrin type-A receptor 6 (Homo sapiens) (UniProt Q9UF33); experiment: Selectivity interaction (KinomeScan (DiscoverX)) EUB0000092b EPHA6; details: at 10 µM
T1 sequence (whole entry): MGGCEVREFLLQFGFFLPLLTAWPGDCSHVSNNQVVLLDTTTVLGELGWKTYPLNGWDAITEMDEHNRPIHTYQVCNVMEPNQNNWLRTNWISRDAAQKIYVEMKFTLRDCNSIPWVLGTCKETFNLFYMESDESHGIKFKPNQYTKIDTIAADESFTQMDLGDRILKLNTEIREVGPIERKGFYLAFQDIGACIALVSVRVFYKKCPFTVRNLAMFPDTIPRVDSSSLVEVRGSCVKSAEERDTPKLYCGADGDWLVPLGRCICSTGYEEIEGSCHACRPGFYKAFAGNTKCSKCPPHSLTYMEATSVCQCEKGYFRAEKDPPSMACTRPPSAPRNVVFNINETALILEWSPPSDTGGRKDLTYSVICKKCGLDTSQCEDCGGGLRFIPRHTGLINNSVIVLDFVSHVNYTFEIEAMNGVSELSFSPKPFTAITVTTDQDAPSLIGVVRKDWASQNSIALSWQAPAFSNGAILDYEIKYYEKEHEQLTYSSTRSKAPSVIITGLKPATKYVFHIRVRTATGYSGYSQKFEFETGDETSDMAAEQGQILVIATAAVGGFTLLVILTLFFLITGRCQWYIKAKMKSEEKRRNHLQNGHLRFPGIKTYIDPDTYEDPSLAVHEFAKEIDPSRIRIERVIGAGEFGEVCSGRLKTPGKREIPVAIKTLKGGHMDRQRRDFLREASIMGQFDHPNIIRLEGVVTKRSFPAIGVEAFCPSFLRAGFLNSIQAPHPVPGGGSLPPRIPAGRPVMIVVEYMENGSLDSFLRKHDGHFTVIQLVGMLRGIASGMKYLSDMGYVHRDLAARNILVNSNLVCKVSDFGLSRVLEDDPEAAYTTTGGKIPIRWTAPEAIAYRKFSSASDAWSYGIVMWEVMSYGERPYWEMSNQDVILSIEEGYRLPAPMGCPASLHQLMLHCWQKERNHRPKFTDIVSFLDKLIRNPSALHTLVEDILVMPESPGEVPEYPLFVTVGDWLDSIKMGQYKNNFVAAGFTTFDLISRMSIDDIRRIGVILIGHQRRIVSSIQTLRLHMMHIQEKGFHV

[2] = target: Ribosomal protein S6 kinase alpha-3 (Homo sapiens, UniProt P51812); experiment: Selectivity interaction (KinomeScan (DiscoverX)) EUB0000092b RPS6KA3; details: at 10 µM
[3] = target: T2, Serine/threonine-protein kinase 3 (Homo sapiens) (UniProt Q13188); experiment: Selectivity interaction (Millipore kinase profiler) EUB0000124b STK3; details: at 10 µM
T2 sequence (whole entry): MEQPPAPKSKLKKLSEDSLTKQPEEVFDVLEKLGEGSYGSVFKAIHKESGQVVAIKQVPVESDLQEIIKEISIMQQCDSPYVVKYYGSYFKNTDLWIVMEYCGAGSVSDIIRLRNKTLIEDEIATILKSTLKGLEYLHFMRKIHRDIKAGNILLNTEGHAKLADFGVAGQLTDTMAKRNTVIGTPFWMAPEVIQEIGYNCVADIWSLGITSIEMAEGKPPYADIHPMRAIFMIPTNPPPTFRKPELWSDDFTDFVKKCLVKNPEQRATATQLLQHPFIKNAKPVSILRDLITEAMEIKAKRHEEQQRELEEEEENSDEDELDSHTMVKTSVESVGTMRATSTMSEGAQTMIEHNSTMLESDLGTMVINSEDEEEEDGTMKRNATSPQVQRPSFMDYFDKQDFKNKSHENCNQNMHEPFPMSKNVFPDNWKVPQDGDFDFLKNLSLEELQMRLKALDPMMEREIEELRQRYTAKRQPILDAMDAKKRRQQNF

[4] = target: T3, Mitogen-activated protein kinase 14 (Homo sapiens, UniProt Q16539); experiment: Selectivity interaction (Enyzmatic assay) EUB0000601a MAPK14
Activated CDC42 kinase 1 = Activated CDC42 kinase 1 (Homo sapiens, UniProt Q07912); experiment: Selectivity interaction (KinaseProfiler screening (Millipore)) EUB0000601a TNK2; details: at 3 µM
[5] = target: Tyrosine-protein kinase JAK1 (Homo sapiens, UniProt P23458); experiment: Selectivity interaction (ActivX KiNativ screen (kinase selectivity in THP-1 cell lysates)) EUB0000639a JAK1; type: subcellular; details: lysate, at 0.2 µM
[6] = target: Mitogen-activated protein kinase 3 (Homo sapiens, UniProt P27361); experiment: Selectivity interaction (SelectScreen profiling (Invitrogen)) EUB0000607a MAPK3; details: at 2 µM
[7] = test system: Serine/threonine-protein kinase B-raf (Homo sapiens), P15056 [V600E]; experiment: (§1) Selectivity interaction (KinomeScan (DiscoverX)) EUB0001049a BRAF; details: at 1 µM
[8] = target: Serine/threonine-protein kinase B-raf (Homo sapiens) (UniProt P15056); experiment: as §1; details: at 1 µM
[9] = target: T3, Mitogen-activated protein kinase 14; experiment: Selectivity interaction (ActivX KiNativ screen (ex vivo kinase selectivity in human PBMCs)) EUB0001619a MAPK14; type: cell-based; details: PBMC, at 1 µM
[10] = target: Mitogen-activated protein kinase 8 (Homo sapiens, UniProt P45983); experiment: Selectivity interaction (KinomeScan (DiscoverX)) EUB0001619a MAPK8; details: at 1 µM
Sequence of Mitogen-activated protein kinase 8 (P45983 whole entry): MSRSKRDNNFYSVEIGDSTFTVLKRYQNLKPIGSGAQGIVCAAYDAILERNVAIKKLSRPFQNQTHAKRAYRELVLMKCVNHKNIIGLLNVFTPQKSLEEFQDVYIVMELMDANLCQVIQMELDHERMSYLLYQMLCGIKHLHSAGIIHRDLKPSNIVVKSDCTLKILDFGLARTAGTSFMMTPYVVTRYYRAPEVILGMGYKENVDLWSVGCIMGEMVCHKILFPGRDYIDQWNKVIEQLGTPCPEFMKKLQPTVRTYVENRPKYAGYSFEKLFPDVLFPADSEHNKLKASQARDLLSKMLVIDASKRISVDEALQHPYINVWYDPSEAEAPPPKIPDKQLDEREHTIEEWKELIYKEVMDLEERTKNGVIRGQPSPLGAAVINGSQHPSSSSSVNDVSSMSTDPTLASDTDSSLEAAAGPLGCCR

T3 sequence (Q16539 whole entry): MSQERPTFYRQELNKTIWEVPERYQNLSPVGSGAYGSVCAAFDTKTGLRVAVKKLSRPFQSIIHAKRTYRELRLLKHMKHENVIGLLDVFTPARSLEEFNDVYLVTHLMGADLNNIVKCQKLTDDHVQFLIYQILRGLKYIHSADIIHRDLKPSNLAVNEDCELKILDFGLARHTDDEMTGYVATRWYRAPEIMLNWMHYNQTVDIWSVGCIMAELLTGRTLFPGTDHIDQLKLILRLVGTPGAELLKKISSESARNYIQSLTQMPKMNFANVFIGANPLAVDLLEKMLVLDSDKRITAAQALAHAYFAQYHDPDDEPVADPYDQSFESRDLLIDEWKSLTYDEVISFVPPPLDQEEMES
Sequence of Tyrosine-protein kinase JAK1 (P23458 whole entry): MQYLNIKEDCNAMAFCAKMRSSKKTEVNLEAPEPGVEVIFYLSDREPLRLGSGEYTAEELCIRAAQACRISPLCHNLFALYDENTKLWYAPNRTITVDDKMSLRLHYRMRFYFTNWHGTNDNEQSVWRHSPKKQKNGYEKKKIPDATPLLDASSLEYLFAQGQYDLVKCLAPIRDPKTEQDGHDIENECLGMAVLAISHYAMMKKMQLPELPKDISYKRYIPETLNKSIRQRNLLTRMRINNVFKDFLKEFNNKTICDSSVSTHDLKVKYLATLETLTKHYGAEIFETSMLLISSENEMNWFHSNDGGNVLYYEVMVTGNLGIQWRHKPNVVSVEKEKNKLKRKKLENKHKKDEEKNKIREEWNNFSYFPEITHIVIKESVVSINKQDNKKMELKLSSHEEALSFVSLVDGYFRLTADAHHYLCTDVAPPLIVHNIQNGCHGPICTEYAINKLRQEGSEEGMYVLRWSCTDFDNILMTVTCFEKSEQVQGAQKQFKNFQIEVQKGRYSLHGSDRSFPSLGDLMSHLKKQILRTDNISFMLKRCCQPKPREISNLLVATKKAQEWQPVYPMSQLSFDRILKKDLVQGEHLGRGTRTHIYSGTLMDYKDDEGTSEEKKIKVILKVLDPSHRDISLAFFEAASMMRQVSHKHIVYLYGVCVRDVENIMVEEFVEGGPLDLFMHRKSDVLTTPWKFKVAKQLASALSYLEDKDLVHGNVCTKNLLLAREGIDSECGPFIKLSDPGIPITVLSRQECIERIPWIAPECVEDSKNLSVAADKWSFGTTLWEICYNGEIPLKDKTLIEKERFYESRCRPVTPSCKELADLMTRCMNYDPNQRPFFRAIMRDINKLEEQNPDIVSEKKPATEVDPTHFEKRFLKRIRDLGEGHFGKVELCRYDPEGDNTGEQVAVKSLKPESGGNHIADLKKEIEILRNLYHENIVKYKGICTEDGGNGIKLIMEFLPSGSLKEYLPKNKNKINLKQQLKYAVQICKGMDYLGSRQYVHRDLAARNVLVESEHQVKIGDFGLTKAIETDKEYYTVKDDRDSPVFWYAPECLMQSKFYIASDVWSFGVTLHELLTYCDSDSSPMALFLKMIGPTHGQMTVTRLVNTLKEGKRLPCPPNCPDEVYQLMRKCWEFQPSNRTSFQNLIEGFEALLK
Sequence of Mitogen-activated protein kinase 3 (P27361 whole entry): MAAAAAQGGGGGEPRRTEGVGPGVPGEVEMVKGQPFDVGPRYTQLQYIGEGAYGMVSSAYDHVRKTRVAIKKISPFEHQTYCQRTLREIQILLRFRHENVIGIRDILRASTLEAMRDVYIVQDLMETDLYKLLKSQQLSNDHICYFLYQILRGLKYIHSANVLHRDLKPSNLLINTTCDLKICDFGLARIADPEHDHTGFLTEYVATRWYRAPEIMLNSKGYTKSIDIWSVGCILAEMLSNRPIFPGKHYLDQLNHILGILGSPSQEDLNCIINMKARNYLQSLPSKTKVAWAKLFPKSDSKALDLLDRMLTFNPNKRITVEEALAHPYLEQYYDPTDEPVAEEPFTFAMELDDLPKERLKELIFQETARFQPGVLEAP
Sequence of Serine/threonine-protein kinase B-raf (Homo sapiens) (P15056 whole entry): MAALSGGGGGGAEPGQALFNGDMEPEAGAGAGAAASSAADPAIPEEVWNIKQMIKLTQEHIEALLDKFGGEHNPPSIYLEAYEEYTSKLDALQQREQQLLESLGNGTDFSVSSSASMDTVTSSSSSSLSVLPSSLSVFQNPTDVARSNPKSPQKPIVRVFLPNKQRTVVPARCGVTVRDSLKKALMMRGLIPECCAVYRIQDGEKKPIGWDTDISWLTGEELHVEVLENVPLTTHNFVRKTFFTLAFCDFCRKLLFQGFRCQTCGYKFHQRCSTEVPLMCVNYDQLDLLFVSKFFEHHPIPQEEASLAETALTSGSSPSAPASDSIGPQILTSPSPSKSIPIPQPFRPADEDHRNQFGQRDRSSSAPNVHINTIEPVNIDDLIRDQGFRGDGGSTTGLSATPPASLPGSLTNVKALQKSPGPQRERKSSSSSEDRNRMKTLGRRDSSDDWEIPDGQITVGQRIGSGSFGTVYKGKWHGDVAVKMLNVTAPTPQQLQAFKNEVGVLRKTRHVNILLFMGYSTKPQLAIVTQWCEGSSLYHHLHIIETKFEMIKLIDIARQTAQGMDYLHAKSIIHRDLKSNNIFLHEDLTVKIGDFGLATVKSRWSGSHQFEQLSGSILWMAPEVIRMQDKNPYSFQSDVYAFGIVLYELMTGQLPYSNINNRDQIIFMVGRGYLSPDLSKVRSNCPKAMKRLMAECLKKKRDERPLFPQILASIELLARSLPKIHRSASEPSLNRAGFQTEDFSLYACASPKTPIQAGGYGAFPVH
Sequence of Serine/threonine-protein kinase B-raf (Homo sapiens), P15056 [V600E] (P15056 whole entry V600E): as the sequence (P15056 whole entry) above, with V600E counted along it
Sequence of Activated CDC42 kinase 1 (Q07912 whole entry, looked up): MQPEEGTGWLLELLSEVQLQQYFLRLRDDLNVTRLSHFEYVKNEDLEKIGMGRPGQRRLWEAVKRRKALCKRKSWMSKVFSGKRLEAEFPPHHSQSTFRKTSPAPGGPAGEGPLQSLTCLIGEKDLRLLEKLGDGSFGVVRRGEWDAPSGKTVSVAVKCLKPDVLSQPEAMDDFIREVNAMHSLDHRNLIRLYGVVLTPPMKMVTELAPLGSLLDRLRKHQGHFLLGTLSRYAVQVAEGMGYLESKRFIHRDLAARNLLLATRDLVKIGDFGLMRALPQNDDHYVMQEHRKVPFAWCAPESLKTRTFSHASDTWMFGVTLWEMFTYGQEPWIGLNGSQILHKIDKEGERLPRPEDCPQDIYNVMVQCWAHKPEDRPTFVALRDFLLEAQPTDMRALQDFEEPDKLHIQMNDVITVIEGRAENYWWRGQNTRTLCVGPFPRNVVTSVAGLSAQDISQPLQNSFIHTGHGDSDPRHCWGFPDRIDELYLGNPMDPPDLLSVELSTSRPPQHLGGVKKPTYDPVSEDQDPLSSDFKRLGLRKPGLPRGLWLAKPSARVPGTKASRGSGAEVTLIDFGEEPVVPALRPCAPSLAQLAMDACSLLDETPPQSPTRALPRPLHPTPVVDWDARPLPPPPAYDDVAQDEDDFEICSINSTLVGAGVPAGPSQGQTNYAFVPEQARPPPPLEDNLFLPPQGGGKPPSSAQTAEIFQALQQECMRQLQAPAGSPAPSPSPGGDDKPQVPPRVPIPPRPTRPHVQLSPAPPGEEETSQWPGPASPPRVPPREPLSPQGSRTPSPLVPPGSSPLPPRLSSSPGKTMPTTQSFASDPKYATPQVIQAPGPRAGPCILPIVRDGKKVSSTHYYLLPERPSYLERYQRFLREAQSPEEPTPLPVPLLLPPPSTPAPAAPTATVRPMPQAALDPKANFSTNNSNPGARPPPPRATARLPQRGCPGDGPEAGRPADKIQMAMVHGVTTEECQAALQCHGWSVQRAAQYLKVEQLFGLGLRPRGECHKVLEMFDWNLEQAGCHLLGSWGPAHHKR
Sequence of Ribosomal protein S6 kinase alpha-3 (P51812 whole entry): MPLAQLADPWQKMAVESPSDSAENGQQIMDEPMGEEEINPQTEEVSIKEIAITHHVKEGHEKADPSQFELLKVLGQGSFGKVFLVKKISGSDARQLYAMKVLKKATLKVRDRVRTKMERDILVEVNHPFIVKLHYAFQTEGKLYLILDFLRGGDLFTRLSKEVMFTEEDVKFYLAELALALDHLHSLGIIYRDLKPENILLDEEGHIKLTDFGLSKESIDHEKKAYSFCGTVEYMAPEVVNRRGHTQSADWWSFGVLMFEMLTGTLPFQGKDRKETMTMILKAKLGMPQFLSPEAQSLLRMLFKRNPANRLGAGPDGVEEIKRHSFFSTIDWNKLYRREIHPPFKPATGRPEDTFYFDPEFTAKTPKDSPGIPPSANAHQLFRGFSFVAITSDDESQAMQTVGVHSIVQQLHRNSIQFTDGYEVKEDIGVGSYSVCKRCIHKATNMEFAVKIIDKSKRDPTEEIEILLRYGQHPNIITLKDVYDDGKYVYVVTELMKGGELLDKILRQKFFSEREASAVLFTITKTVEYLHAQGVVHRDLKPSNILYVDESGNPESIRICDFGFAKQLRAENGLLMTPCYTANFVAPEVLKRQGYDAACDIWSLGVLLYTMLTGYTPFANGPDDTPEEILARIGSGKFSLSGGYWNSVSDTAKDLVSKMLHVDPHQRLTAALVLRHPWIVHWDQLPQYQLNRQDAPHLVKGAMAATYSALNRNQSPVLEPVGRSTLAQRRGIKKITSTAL

For `CCC(=O)N1CCN(c2ccc(-n3c(=O)ccc4cnc5ccc(-c6cnc7ccccc7c6)cc5c43)cc2C(F)(F)F)CC1`, the % of control [1] was 75% and the % of control [2] was 38%.

`CC(=O)Nc1cccc(-n2c(=O)n(C3CC3)c(=O)c3c(Nc4ccc(I)cc4F)n(C)c(=O)c(C)c32)c1` showed a % of control [3] of 94%.

With `CCc1cc(Nc2nccc(-c3c(-c4ccc(OC)c(C(=O)Nc5c(F)cccc5F)c4)nc4ccccn34)n2)c(OC)cc1N1CCC(N2CCN(S(C)(=O)=O)CC2)CC1` the IC50 [4] was over 10 µM and the % of inhibition (Activated CDC42 kinase 1) was 34%.

For `CC[C@@H]1[C@H](F)C(=O)N[C@@H]1COc1nccc2cc(C(N)=O)c(OC)cc12` [ZIMLOVISERTIB], the % of inhibition [5] was -7.3%.

`CNC(=O)Nc1ccc(-c2nc(N3CC4CCC(C3)O4)c3cnn(C4CCC5(CC4)OCCO5)c3n2)cc1` showed a % of inhibition [6] of 1%.

Work on `COc1cc(Nc2nc(C)cc(-c3cnn4nc(OC)ccc34)n2)cc(C(F)(F)F)c1` yielded a % of control [7] of 100% and a % of control [8] of 100%.

Work on `N#Cc1cccc(-c2c[nH]c3ncnc(N4CCOCC4)c23)c1` yielded a % of inhibition [9] of -2% and a % of control [10] of 62%.

From ChEMBL document CHEMBL5465560, “Selectivity Literature for EUbOPEN Chemogenomic Library” (2024)
